Reference: US20200206354A1, “DRUG DELIVERY COMPOSITION” (PK MED SAS, priority 2017, published 2020)
Where “and” joins values, the source holds several entries; their conditions need not be identical. Identical values can stand only once. Counter-ions that a name gives are not always drawn.

How the values were obtained:
[1] = Drug integrity after extrusion and release, HPLC peaks compared with non-extruded drug
Description: An Ultimate 3000 HPLC system (Thermofisher Scientific) equipped with Diode Array Detector (DAD-3000(RS)) and a Phenomenex Kinetex EVO C18, LC Column 100×2.1 mm, 2.6 μm with a pore size of 100 Å. The column was controlled to a temperature of 30° C. The mobile phase was a gradient of Ammonium Bicarbonate 20 mM pH9/Acetonitrile (95/5% to 35/65 in 5 min) with a flow rate of 0.75 mL/min. Naltrexone hydrochloride powder was accurately weighed and dissolved in water to give 450 μg/mL solution. Subsequent dilutions were made with water to get concentrations of 7-450 μg/mL. The standard solutions prepared as above were injected in the same conditions of samples. The peak areas of the naltrexone concentration were calculated. The regression of the naltrexone concentration over the peak areas was obtained and used to estimate the amount of naltrexone released from the polymer.

[2] = lysozyme powder from Sigma-Aldrich; cited from earlier work
[3] = Lysozyme activity after extrusion, liquid-liquid extraction and Lysozyme activity Kit; assay type: biochemical
Description: The lysozyme was extracted from the drug delivery composition by liquid-liquid extraction. 50 mg of drug delivery composition were solubilized in 2.5 mL of Dichloromethane. Then 7.5 mL of cold 66 mM potassium phosphate buffer pH6.24 was added. The mix was vigorously vortex. Samples were maintained in ice between each step. After phase separation, aqueous phase was taken off and lysozyme activity was measured using Lysozyme activity Kit (from Sigma-Aldrich).
The lysozyme was extracted from the drug delivery composition by liquid-liquid extraction as described in Example 4 and lysozyme activity was titrated with lysozyme activity kit (from Sigma-Aldrich).

| Molecule | degradation of the released drug by the PLA-degrading enzyme ([1]; drug delivery composition with Savinase®) | degradation of naltrexone through the extrusion process ([1]; extruded in PLA at 168° C.) | denaturation temperature [2] | lysozyme activity after two extrusions (in words) ([3]; Example 4 composition (PLA, PCL masterbatch, Savinase®), extrusions at 78° C. and 165° C., results not shown) | lysozyme activity retained after extrusion ([3]; Example 5.2 composition, 50% PCL and 50% lysozyme, extruded at 78° C.) [%] |
| --- | --- | --- | --- | --- | --- |
| O=C1CC[C@@]2(O)[C@H]3Cc4ccc(O)c5c4[C@@]2(CCN3CC2CC2)[C@H]1O5 [naltrexone, naltrexone hydrochloride] | without any degradation | not degraded |  |  |  |
| lysozyme: lysozyme powder from Sigma-Aldrich, 14.7 kDa protein used as model drug |  |  | 76 °C and 74 °C | still exhibits activity | 95 |
